Patent US6608111B1, “Method for treating or preventing prostatic conditions” (Southern Illinois University Office of Research, …, priority 1998, dated 2003)

Key:
dialyzed LDL = test: Oxidized LDL lag time assay (antioxidant capacity); set-up: species or system human; details: 3 μM Cu2SO4, drugs at 10^−4, 10^−5, 10^−6, and 10^−7 M
Procedure: Experiments were carried out on dialyzed LDL collected from four fasted persons. The LDL was used within 10 days of dialysis. The oxidizing agent was 3 μM […]; phosphate buffered saline was used to control pH, and all drugs were dissolved in ethanol; final concentrations of each drug in the assays were 10^−4, 10^−5, 10^−6, and 10^−7 M. The combined results are shown in FIG. 6.

[1] = tested on: male and female Wistar rats; test: Experiment 2: chronic treatment of male and female rats, 5-6 weeks; type: in vivo, rat; details: for Food intake: n = 5
Procedure: Twenty-five male and 25 female Wistar rats, 7-8 weeks of age, were randomly assigned to groups of five animals, respectively, for treatment with vehicle only (V), estradiol (E), (±)-Z-BDDA, (+)-Z-BDDA, or (−)-Z-BDDA. Each animal in group V received a daily 0.1 cc injection of a 10% ethanol-90% olive oil solution; the other treatments received their respective compound as a daily 0.1 cc injection, e.g., 2.5 μg of compound/g of body weight, in a 10% ethanol-90% olive oil solution. A temperature of 21° C. and an artificial 12-h light-dark cycle were maintained in the animal room. All animals were maintained on standard chow in powdered form, the males for five weeks and the females for six weeks, then sacrificed after an overnight fast under i.p. pentobarbital anesthesia (50 mg/kg). Animal weight and food intake were measured weekly during the study and subsequent FER values were determined. During sacrifice, blood was collected (via cardiac puncture) for glucose, luteinizing hormone, prolactin and testosterone measurements. The amounts of luteinizing hormone, prolactin and testosterone were measured to help elucidate the target tissue of the respective compounds in male and female rats. Immediately following sacrifice the fat pads and reproductive organs were removed and weighed.
Experiments 1 and 2 employed a randomized design. All data were analyzed by one-way analysis of variance (ANOVA,)and post-hoc comparisons were made with Tukey pairwise comparisons test. Significance was confirmed at p≦0.05 (SYSTAT 7.0, SPSS INC., 1997), and all values are reported as means±standard error of the mean.

[2] = tested on: primary porcine granulosa cells; test: In situ apoptosis assay in primary porcine granulosa cells; type: cell-based; details: 24 hr treatment, 0.1, 1 and 10 μM combined, serum-free MEM; controls 63.4% / 68.4%
Procedure: Porcine ovaries were obtained from local packing plants and transported to the laboratory on ice-cold Hank's balanced salt solution (HBSS). Each of the follicles was aspirated with an insulin syringe, and the follicular fluid was centrifuged at 3000 rpm and 4° C. for 15 min. The supernatant was poured off and the cells were washed in 5 mls of cold HBSS and centrifuged for another 10 min. The cells were again resuspended in HBSS, and the number of viable cells counted under the microscope using a hematocytometer. Once the number of cells was determined, the cells were centrifuged again for 10 min. and resuspended in the appropriate volume of Eagle's minimum essential media (MEM) containing 10% fetal bovine serum (FBS) and antibiotic/antimycotics. The cells were plated at 250,000 per well in 8 chamber microscope slides (Nunc, Naperville, Ill.) which were pre-treated with poly-L-lysine for 10 min. The slides were incubated at 5% CO2/95% air at 37° C. Approximately 12 hours later, the medium was removed by vacuum and replaced with pre-warmed, serum-free MEM. Cells were then treated for 2-3 hrs with MEM only to wash out any estrogen effects from the serum (Winters et al. (1994) Biol. Reprod. 50 (Suppl. 1):113; Suttner et al. (1998) Biol. Reprod. 59 (Suppl.): (Accepted for publication). Following serum-free MEM treatment, cells were treated for 24 hr with (+) or (−) enantiomers of Z-BDDA or estradiol at 0. 1, 1, and 10 μM, or EtOH vehicle control in serum-free MEM. Cells were subsequently processed using an in situ apoptosis assay kit (Apotag-Plus In Situ Apoptosis Kit-Peroxidase, Edition 1.1., Oncor, Gaithersburg, Md., 1995) to study ovarian apoptosis (Suttner et al., 1998). The slides were washed in two changes of PBS for 5 min each, and then quenched in 2% hydrogen peroxide in methanol for 5 min. at room temperature. After pre-treatment with an equilibration buffer, 13 ul of Terminal deoxynucleotidyl Transferase (TdT) diluted with reaction buffer and distilled water were added, and the slides were incubated for 1 h at 37° C. in a humidified chamber. After this 1 h period, the slides were put in pre-warmed stop wash buffer in the incubator for 30 min to stop the reaction. Next, the slides were washed in three changes of PBS for 5 min. each, and the anti-digoxigenin peroxidase was placed on the slides for 30 min. in a humidified chamber at room temperature. […] The degree of apoptosis for the calorimetric apoptosis assay was quantified microscopically using an image analysis system (Optimas 5.23, Optimas Users Guide, 5th Edition, Redmond, Wash.). Ten measurements (captured images) were taken for each concentration based on a pre-determined grid. […] Percentage area of each color was then quantitated using the image analysis system. […]

male Sprague-Dawley rats = test: Example 4: effects on prostate and testis of male rats, 6 weeks; type: in vivo, rat; details: for Prostate Weight as % Body Weight / Seminal Vesicle Weight as % Body Weight / Testis Weight as % Body Weight / Body Weight (g): 0.1 ug/g of body weight once a day, mean ± SEM; for Body Weight (g): n = 10
Procedure: Sixty male Sprague-Dawley rats, 7-8 weeks of age, were randomly assigned to groups of ten animals. Each group was randomly assigned to one of six treatments: Vehicle control (C), Estradiol-17β(E), (−)-Z-BDDA, (+)-Z-BDDA, (−)-HAA, and (+)-HAA. The compounds were all administered at a dose of 0.1 μg/g of body weight in 0.1 cc once a day for 6 weeks. The estrogenic compounds were dissolved in 10% ethanol and 90% olive oil vehicle. A temperature of 21° C. and an artificial 12 h light-dark cycle were maintained in the animal room. All animals were maintained on standard chow in powdered form for six weeks, and then sacrificed after an overnight fast under i.p. pentobarbitol anesthesia (50 mg/kg). Animal weight was measured weekly during the study. During sacrifice, blood was collected via cardiac puncture. Immediately following sacrifice, the fat pads, livers, pituitaries, testes, seminal vesicles, and prostate were removed and weighed, and snap frozen in liquid nitrogen. Prostates and one testis from 2-3 animals in each treatment group were fixed in 10% formalin for histological examination. These tissues were fixed overnight, blocked in paraffin, sectioned at 4 μm, stained with Hematoxylin and Eodsin, cover slipped, and examined microscopically. Quantitative results were subjected to an analysis of variance and means separated by a Tukey's Test (SYSTAT, Chicago, Ill.).

[3] = tested on: MCF-7 human mammary cancer cell line; details: human MCF-7 cells in culture; cited from earlier work
mice = details: cited from earlier work
[4] = tested on: rats, cats, chicks, and guinea pigs; details: animals including rats; cited from earlier work
[5] = female rats, 2.5 ug/g of body weight daily, six weeks, mean ± SEM
[6] = male rats, 2.5 ug/g of body weight daily, five weeks, mean ± SEM

Compound | antioxidant activity (shift in lag time of LDL oxidation) (dialyzed LDL) | testis histology: spermatogenesis (male Sprague-Dawley rats; 0.1 μg/g daily, FIGS. 5a-f) | Prostate Weight as % Body Weight (male Sprague-Dawley rats) | Seminal Vesicle Weight as % Body Weight (male Sprague-Dawley rats) | Testis Weight as % Body Weight (male Sprague-Dawley rats) | Body Weight (g) (male Sprague-Dawley rats) | other results
CC[C@@H]1c2ccc3cc(O)ccc3c2CC[C@]1(C)C(=O)O [(−)-Z-BDDA, (−)-Z-bisdehydrodoisynolic acid] | significant antioxidant activity | halted primarily at the secondary spermatocyte phase | 0.08 ± 0.00^1 % Body Weight | 0.06 ± 0.02^4 % Body Weight | 0.31 ± 0.02^1,4 % Body Weight | 166.5 ± 4.5^1,2,4 g | Uterus/testis weight (g) ([1]; female rats (uterus), 2.5 ug/g of body weight daily, six weeks, mean ± SEM): 1.44 ± 0.34^2,3,4 g; Blood glucose [1, 5]: 95.00 ± 8.33 mg/dL; FER (food efficiency ratio) [1, 5]: 0.011 ± 0.005^1,2; Food intake [1, 5]: 675.2 ± 37.9 g; weight gain (percent weight change) ([1]; female rats, both experiments (FIGS. 2 and 3), 2.5 μg/g daily): repress weight gain slightly more than did (+)-Z-BDDA and E2; Uterus/testis weight (g) ([1]; male rats (testis), 2.5 ug/g of body weight daily, five weeks, mean ± SEM): 0.57 ± 0.04^1 g; testosterone ([1]; male rats, 2.5 μg/g daily, compared to the vehicle): less pronounced; Blood glucose (mg/dl) [1, 6]: 88.00 ± 2.00^1 mg/dl; FER (food efficiency ratio) [1, 6]: −0.01 ± 0.01^1; Prostate weight (g) [1, 6]: 0.03 ± 0.10^1 g; Food intake [1, 6]: 650.0 ± 54.3 g; mean apoptosis (% area) [2]: 26.1%; testis histology: Leydig cells (male Sprague-Dawley rats; 0.1 μg/g daily, FIGS. 5a-f): severely atrophied Leydig cells, the smallest of all the treatments
O=c1c(-c2ccc(O)cc2)coc2cc(O)cc(O)c12 [genistein] | Less antioxidant activity |  |  |  |  |  | 
O=c1c(-c2ccc(O)cc2)coc2cc(O)ccc12 [daidzein] | Less antioxidant activity |  |  |  |  |  | 
CC[C@@H](c1ccc2cc(O)ccc2c1)C(C)(C)C(=O)O [(−)-HAA] |  | halted at round spermatid, with a few reaching cap phase | 0.08 ± 0.01^1 % Body Weight | 0.04 ± 0.00^1,4 % Body Weight | 0.31 ± 0.01^1,4 % Body Weight | 180.9 ± 4.5^1,2,4 g | MCF-7 cell proliferation (estrogenicity) [3]: highly effective; activity in inhibition of weight gain and sulfate incorporation, relative to compound 2 (mice): 100 fold; prostate histology (alveoli) (male Sprague-Dawley rats; 0.1 μg/g daily, FIGS. 4a-f): largest degree of atrophy
CC[C@H](c1ccc2cc(O)ccc2c1)C(C)(C)C(=O)O [(+)-HAA] |  | halted at round spermatid, with a few spermatogenic cells showing elongation (acrosome phase) | 0.08 ± 0.01^1 % Body Weight | 0.10 ± 0.04 % Body Weight | 0.38 ± 0.02^1,4 % Body Weight | 196.2 ± 5.2^1,4,5 g | effect on sulfate incorporation and weight gain (mice): significant depression of sulfate incorporation without the corresponding effects on weight gain
CC[C@H](c1ccc2cc(OC)ccc2c1)C(C)(C)C(=O)O [compound 3] |  |  |  |  |  |  | estrogenic activity (estrogenicity) in animals [4]: one-fifth the estrogenicity of 2
